Results from US6455076B1, “Formulations and methods for reducing skin irritation” (priority 1994, dated 2002).
Where two headings read alike, the source gives them in different places.

What was measured:
[1] = test system: skin irritation caused by lactic acid; format: in vivo, human; conditions: for average inhibition of cumulative irritation (Percent Inhibition): cation salt 250 mM in 7.5% lactic acid irritant composition, applied to face, vs equimolar sodium chloride control, average over trials; for Percent Inhibition (cumulative irritation): representative panels, cation 250 mM, 7.5% lactic acid; for Percent Inhibition (cumulative irritation), dose-response: lactic acid irritation protocol
Method: The trials were conducted in a double blind, randomized, vehicle-controlled manner. Various formulations of the invention were tested in over 150 people.
Tests were conducted in multiple panels of from 7 to 12 subjects each. Subjects were instructed not to wear any makeup or facial lotions to the clinic the day of testing. T he subjects were instructed to wash their face with Ivory bar soap in the clinic prior to application of test solutions.
Lactic acid skin-irritant compositions were formulated in an appropriate vehicle prior to application to the skin of the subjects. […] […] The test formulation was applied to a defined portion of the subject's skin, typically the face. Controls were performed by applying a corresponding formulation with an equimolar amount of sodium chloride to a contralateral portion of the subject's skin.
All test solutions (including controls) were applied in a double blind, randomized fashion using the prepared solutions as previously placed in coded vial designated for use on either the right or left side of the face (or other test area). Solutions were typically applied using a cotton swab (six strokes) or sponge applicator to the face and cheek area extending from the midline of the nose over to the center of the cheek and from the cheek bone down to the jaw line. Application was made first to the right side and then to the left.
Sensory assessment scores were recorded for each treated side of the subject's skin every minute for 15 minutes or until three consecutive scores of “zero” irritation were obtained. The following scaled scores were used for sensory assessment:
Symptom scores were cumulated, separately for the cation-treated and control-treated areas, for each individual and also for the panel as a whole. Individuals not reporting a cumulative score of at least “7” on at least one treatment area were excluded (in a blinded fashion) from further analysis in order to ascertain anti-irritant efficacy with respect to the more severely-susceptible test subjects. From a practical standpoint, scores of “0” and “1” on the above scale would be considered highly desirable for a commercial product because such a response would likely not result in a consumer ceasing to use a product. Some consumers, in fact, might view the “barely perceptible” sensations represented by a score of 1 to be an indication that a facial treatment skin care product (especially an exfoliant) was working as advertised. By contrast, irritation scores of “2”, “3” and “4” would likely often result in a consumer never purchasing the product again.

skin irritation = test: Cation salts formulated in commercial topical cosmetic product, inhibition of skin irritation; format: in vivo; conditions: various amounts combined with Elizabeth Arden Visible Difference Refining Toner (alcohol-containing solution)
Excerpt: Cation salts of the invention were formulated at various concentrations in various commercially available topical cosmetic products.

[2] = topical application, lactic acid induced stinging, burning, tingling, itching, erythema

Compound | average inhibition of cumulative irritation (Percent Inhibition) [1] [%] | anti-irritant activity in clinical trials (in words) [1, 2] | Percent Inhibition (cumulative irritation) ([1]; vehicle 10% EtOH) [%] | inhibition of skin irritation (in words) (skin irritation) | further results
stannous chloride | 50 | particularly active as anti-irritants | – | – | anti-irritant efficacy in panel test (FIGS. 1-4, in words) ([1]; 250 mM, one panel, time course and cumulative irritation): overall efficacy of the subject formulation is clear; Percent Inhibition (cumulative irritation) ([1]; vehicle 33.75% H2O/33.75% Gly/25% EtOH): 50%
[Cl][Al]([Cl])[Cl] [Aluminum chloride, aluminum chloride] | 46 | particularly active as anti-irritants | 43 | effective to inhibit skin irritation | Percent Inhibition (cumulative irritation), dose-response ([1]; salt concentration 31 mM): 12%; Percent Inhibition (cumulative irritation), dose-response ([1]; salt concentration 62 mM): 54%; Percent Inhibition (cumulative irritation), dose-response ([1]; salt concentration 125 mM): 50%; Percent Inhibition (cumulative irritation), dose-response ([1]; salt concentration 250 mM): 42%; Percent Inhibition (cumulative irritation), dose-response ([1]; salt concentration 500 mM): 44%
[F][Sn][F] [Stannous fluoride, stannous fluoride] | 15 | – | 17 | effective to inhibit skin irritation | –
[Sn+2] [tin(II) (Sn^2+), tin(II)] | – | effective | – | – | –
O=[N+]([O-])[O-].O=[N+]([O-])[O-].[Sn+2] [stannous nitrate] | – | – | – | – | anti-irritant activity in clinical trials (in words) ([1]; human, in vivo): particularly active as anti-irritants
